The values below come from ChEMBL document CHEMBL4800726, “Data for DCP probe MSC-4381” (2021).

pKi: −log10 of the molar value. A value given as a limit tells only on which side of the number the result lay.

The target of data set [1] is 5-hydroxytryptamine receptor 1E (Homo sapiens, UniProt P28566). The settings on record: Compound concentration 10.0 uM.
In data set [2] the target is Delta-type opioid receptor (Homo sapiens, UniProt P41143). Put plainly: GPCRScan assay: inhibition of DOR. On the set-up: radioligand conc. used [nm] 1.0 – 2.0, parental cells stable HEK.
Sequence of Delta-type opioid receptor (P41143 whole entry): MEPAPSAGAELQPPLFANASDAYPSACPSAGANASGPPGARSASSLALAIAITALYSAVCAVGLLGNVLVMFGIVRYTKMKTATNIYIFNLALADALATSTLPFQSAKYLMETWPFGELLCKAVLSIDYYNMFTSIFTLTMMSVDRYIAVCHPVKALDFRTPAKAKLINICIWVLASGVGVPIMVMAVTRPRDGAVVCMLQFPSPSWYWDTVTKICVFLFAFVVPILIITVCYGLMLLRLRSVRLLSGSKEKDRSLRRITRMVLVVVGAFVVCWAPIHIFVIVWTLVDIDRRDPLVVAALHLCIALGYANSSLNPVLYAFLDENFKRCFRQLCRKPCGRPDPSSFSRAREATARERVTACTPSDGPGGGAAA
Data set [3] concerns the target 5-hydroxytryptamine receptor 5A (Homo sapiens, UniProt P47898). The settings on record: Compound concentration 10.0 uM.
The target in data set [4] is Monocarboxylate transporter 1/4 (Homo sapiens, UniProt P53985+O15427). Put plainly: Lactate efflux inhibition assay (MiaPaCa2 ). The class given is protein assay.
Data set [5] addresses Vasopressin V1a receptor (Homo sapiens) (UniProt P37288). Put plainly: V1a (h) Eurofins-Cerep Cellular and Nuclear Receptor Functional Assays. The settings on record: Compound concentration 10.0 uM.
Data set [6] has as its target Neuropeptide Y receptor type 2 (Homo sapiens) (UniProt P49146). Put plainly: Y2 (h) Eurofins-Cerep binding assay. On the set-up: ligand concentration 0.015 nM. The settings on record: filed as agonist, Compound concentration 10.0 uM.
Data set [7] deals with T1, GABA-A receptor; anion channel (Rattus norvegicus) (UniProt O09028+P15431+P18506+P18508+P19969+P20236+P23574+P23576+P28471+P28473+P30191+P62813+P63079+P63138+Q91ZM7+Q9ES14). Description: BZD (central) Eurofins-Cerep binding assay. Format: protein-complex assay. On the set-up: ligand concentration 0.4 nM. The settings on record: filed as agonist, Compound concentration 10.0 uM.

The target of data set [8] is Galanin receptor type 2 (Homo sapiens) (UniProt O43603). Put plainly: GAL2 (h) Eurofins-Cerep binding assay. The arrangement: ligand concentration 0.05 nM. The following applies: filed as agonist, Compound concentration 10.0 uM.
Sequence of Galanin receptor type 2 (Homo sapiens) (O43603 whole entry): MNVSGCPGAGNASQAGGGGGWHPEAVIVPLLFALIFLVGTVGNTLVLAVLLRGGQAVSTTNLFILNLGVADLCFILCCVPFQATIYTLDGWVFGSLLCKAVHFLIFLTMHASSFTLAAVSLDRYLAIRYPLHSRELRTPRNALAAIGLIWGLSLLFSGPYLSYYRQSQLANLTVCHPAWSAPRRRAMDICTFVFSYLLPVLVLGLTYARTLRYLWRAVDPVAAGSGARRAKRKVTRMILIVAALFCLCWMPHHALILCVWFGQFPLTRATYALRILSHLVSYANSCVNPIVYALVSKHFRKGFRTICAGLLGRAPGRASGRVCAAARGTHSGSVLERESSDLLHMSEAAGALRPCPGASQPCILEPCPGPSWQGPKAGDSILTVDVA
Data set [9] deals with Sodium-dependent serotonin transporter (Homo sapiens) (UniProt P31645). Description: 5-HT transporter (h) Eurofins-Cerep binding assay. On the set-up: ligand concentration 2 nM. The following applies: filed as antagonist, Compound concentration 10.0 uM.
Sequence of Sodium-dependent serotonin transporter (Homo sapiens) (P31645 whole entry, looked up): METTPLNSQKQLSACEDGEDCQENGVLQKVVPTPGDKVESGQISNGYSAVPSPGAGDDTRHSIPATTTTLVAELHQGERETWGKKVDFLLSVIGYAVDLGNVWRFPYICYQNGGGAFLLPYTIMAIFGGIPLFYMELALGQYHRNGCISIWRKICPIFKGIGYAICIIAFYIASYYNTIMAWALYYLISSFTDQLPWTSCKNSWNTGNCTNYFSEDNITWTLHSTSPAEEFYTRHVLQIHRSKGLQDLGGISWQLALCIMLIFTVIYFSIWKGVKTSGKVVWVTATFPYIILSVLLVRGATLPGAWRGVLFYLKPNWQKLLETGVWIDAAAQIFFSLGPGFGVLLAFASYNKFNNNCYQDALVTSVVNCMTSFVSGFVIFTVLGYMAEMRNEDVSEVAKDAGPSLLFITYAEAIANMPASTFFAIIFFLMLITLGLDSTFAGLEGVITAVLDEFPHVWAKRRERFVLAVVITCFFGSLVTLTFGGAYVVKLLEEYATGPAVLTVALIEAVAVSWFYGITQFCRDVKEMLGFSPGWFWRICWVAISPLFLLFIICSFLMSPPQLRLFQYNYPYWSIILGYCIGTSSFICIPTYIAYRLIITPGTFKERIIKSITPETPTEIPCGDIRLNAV
Data set [10] has as its target Kappa-type opioid receptor (Homo sapiens) (UniProt P41145). Description: kappa (h) (KOP) Eurofins-Cerep binding assay. The arrangement: ligand concentration 0.5 nM. The following applies: filed as agonist, Compound concentration 10.0 uM.
Data set [11] deals with Sodium-dependent dopamine transporter (Homo sapiens, UniProt Q01959). Description: dopamine transporter (h) Eurofins-Cerep binding assay. On the set-up: ligand concentration 4 nM. The settings on record: filed as antagonist, Compound concentration 10.0 uM.
Data set [12] addresses Melatonin receptor type 1A (Homo sapiens) (UniProt P48039). Description: MT1 (ML1A) (h) Eurofins-Cerep binding assay. On the set-up: ligand concentration 0.01 nM. The settings on record: filed as agonist, Compound concentration 10.0 uM.
Data set [13] has as its target Beta-1 adrenergic receptor (Homo sapiens) (UniProt P08588). Description: Beta1 (h) Eurofins-Cerep binding assay. The arrangement: ligand concentration 0.3 nM. The following applies: filed as agonist, Compound concentration 10.0 uM.
Data set [14] has as its target T2, Muscarinic acetylcholine receptor M1 (Homo sapiens) (UniProt P11229).
T2 sequence (whole entry): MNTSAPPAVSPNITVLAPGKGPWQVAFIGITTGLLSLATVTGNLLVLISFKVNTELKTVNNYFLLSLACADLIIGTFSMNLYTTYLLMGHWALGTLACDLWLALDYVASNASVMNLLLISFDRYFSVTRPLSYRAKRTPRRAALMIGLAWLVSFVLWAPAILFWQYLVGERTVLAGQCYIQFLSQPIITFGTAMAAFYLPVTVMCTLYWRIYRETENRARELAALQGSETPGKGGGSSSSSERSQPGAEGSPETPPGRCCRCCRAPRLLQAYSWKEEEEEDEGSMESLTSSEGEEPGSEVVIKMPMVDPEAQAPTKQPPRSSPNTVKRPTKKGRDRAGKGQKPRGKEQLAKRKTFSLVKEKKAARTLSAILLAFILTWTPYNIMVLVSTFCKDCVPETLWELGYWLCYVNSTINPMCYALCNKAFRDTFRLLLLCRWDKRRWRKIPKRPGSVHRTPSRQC
Put plainly: M1 (h) Eurofins-Cerep binding assay. The following applies: filed as antagonist, Compound concentration 10.0 uM. On the set-up: ligand concentration 2 nM.

The species named for data set [15] is Rattus norvegicus. Description: KV channel Eurofins-Cerep binding assay. The settings on record: filed as antagonist, Compound concentration 10.0 uM.
The target in data set [16] is B2 bradykinin receptor (Homo sapiens) (UniProt P30411). Description: B2 (h) Eurofins-Cerep binding assay. The arrangement: ligand concentration 0.3 nM. The following applies: filed as agonist, Compound concentration 10.0 uM.
Data set [17] concerns the target C-C chemokine receptor type 1 (Homo sapiens) (UniProt P32246). Put plainly: CCR1 (h) Eurofins-Cerep binding assay. On the set-up: ligand concentration 0.01 nM. The settings on record: filed as agonist, Compound concentration 10.0 uM.
In data set [18] the target is T1, GABA-A receptor; anion channel (Rattus norvegicus). Put plainly: GABA (non-selective) Eurofins-Cerep binding assay. Format: protein-complex assay. The arrangement: ligand concentration 10 nM. The following applies: filed as agonist, Compound concentration 10.0 uM.
The target of data set [19] is Mu-type opioid receptor (Homo sapiens) (UniProt P35372). Description: mu (MOP) (h) Eurofins-Cerep binding assay. The arrangement: ligand concentration 0.5 nM. The settings on record: filed as agonist, Compound concentration 10.0 uM.
Sequence of Mu-type opioid receptor (Homo sapiens) (P35372 whole entry): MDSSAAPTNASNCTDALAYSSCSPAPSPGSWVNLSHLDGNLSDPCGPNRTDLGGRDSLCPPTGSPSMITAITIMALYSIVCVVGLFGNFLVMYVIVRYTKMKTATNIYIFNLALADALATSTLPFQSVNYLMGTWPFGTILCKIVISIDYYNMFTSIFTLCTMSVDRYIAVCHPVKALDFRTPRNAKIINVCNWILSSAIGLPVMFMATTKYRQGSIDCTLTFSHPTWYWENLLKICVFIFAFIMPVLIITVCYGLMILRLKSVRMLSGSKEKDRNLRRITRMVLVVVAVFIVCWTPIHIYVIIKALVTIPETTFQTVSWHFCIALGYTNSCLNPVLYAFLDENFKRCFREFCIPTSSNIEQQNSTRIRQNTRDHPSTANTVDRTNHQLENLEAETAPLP
Data set [20] has as its target Beta-2 adrenergic receptor (Homo sapiens) (UniProt P07550). Description: Beta2 (h) Eurofins-Cerep binding assay. The settings on record: filed as antagonist, Compound concentration 10.0 uM.
Data set [21] concerns the target Adrenergic receptor alpha-1 (Rattus norvegicus) (UniProt P15823+P23944+P43140). Description: Alpha1 (non-selective) Eurofins-Cerep binding assay. The class given is protein assay. The arrangement: ligand concentration 0.25 nM. The following applies: filed as antagonist, Compound concentration 10.0 uM.
Data set [22] concerns the target Endothelin-1 receptor (Homo sapiens) (UniProt P25101). Description: ETA (h) Eurofins-Cerep binding assay. The arrangement: ligand concentration 0.03 nM. The following applies: filed as agonist, Compound concentration 10.0 uM.
Data set [23] addresses Muscarinic acetylcholine receptor M3 (Homo sapiens) (UniProt P20309). Description: M3 (h) Eurofins-Cerep binding assay. The arrangement: ligand concentration 0.2 nM. The settings on record: filed as antagonist, Compound concentration 10.0 uM.
Data set [24] addresses T3, Muscarinic acetylcholine receptor M5 (Homo sapiens) (UniProt P08912).
T3 sequence (whole entry): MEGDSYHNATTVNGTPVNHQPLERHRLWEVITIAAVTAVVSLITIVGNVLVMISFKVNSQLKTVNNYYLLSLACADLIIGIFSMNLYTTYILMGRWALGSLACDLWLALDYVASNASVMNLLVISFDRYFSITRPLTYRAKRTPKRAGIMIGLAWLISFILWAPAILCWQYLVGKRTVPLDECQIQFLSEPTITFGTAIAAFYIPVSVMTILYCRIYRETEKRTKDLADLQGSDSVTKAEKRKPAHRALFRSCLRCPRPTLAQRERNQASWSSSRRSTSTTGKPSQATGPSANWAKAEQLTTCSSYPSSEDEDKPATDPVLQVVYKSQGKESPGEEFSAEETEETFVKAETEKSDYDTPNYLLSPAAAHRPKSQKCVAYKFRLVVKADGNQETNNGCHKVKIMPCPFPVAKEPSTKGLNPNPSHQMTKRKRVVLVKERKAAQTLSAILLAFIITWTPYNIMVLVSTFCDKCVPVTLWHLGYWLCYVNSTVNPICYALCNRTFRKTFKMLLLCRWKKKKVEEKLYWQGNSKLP
Put plainly: M5 (h) Eurofins-Cerep binding assay. On the set-up: ligand concentration 0.3 nM. The following applies: filed as antagonist, Compound concentration 10.0 uM.

Data set [25] addresses Adrenergic receptor alpha-2 (Rattus norvegicus) (UniProt P22086+P19328+P22909). Description: Alpha2 (non-selective) Eurofins-Cerep binding assay. The class given is protein assay. On the set-up: ligand concentration 1 nM. The settings on record: filed as antagonist, Compound concentration 10.0 uM.
Data set [26] addresses 5-hydroxytryptamine receptor 2B (Homo sapiens) (UniProt P41595). Put plainly: 5-HT2B (h) Eurofins-Cerep binding assay. On the set-up: ligand concentration 0.2 nM. The settings on record: filed as agonist, Compound concentration 10.0 uM.
Data set [27] is filed under the species Rattus norvegicus. Description: SKCa channel Eurofins-Cerep binding assay. On the set-up: ligand concentration 0.007 nM. The settings on record: filed as antagonist, Compound concentration 10.0 uM.
In data set [28] the target is D(1B) dopamine receptor (Homo sapiens) (UniProt P21918). The following applies: Compound concentration 10.0 uM.
Sequence of D(1B) dopamine receptor (Homo sapiens) (P21918 whole entry): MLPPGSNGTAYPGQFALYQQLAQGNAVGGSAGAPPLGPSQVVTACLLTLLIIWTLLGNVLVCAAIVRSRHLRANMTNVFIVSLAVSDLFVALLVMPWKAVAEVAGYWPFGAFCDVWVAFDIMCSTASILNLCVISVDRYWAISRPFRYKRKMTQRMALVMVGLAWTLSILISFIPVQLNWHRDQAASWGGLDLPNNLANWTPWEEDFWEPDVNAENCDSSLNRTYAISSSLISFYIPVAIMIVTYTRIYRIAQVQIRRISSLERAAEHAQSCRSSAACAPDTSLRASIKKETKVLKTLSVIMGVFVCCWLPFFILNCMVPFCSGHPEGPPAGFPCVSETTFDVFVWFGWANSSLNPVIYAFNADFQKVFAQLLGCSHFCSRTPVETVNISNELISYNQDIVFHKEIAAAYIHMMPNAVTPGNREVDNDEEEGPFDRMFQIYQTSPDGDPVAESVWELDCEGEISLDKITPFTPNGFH
A further data set deals with Na+ channel (site 2) (Rattus norvegicus, UniProt F1LQQ7+O08562+O88420+O88457+P04774+P04775+P08104+P15389+P15390+Q62968). Description: Na+ channel (site 2) Eurofins-Cerep binding assay. On the set-up: incubation time 60 min, incubation temperature 37°C, ligand concentration 10 nM. The following applies: rat cerebral cortex, probe [3H]batrachotoxin, compound concentration 10 uM, read-out: % Inhibition of Control Specific Binding (Mean n=2). Format: protein assay.

The target of data set [29] is Adenosine receptor A1 (Homo sapiens) (UniProt P30542). Description: A1 (h) Eurofins-Cerep binding assay. On the set-up: ligand concentration 1 nM. The settings on record: filed as antagonist, Compound concentration 10.0 uM.

Sequence of Vasopressin V1a receptor (Homo sapiens) (P37288 whole entry, looked up): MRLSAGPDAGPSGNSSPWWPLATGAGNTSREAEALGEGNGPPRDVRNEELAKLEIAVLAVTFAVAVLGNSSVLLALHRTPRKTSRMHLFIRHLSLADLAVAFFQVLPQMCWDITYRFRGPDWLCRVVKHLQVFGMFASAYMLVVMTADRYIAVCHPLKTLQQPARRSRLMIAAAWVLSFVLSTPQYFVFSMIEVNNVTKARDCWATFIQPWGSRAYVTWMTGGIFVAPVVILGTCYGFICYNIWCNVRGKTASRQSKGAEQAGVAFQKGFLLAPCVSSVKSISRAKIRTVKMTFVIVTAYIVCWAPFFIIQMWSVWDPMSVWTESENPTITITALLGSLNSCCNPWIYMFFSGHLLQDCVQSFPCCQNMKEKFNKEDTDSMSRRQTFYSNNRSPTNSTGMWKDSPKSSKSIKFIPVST
Sequence of Melatonin receptor type 1A (Homo sapiens) (P48039 whole entry): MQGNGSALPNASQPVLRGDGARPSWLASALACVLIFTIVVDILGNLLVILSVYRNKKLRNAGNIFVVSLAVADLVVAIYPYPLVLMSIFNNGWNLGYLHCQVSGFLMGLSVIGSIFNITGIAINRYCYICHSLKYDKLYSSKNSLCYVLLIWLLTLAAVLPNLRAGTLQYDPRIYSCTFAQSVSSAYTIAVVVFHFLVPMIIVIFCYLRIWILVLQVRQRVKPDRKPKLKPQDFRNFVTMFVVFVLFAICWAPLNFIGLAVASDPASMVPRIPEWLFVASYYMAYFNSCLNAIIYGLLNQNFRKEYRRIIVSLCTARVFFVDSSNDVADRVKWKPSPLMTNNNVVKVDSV
Sequence of Beta-1 adrenergic receptor (Homo sapiens) (P08588 whole entry, looked up): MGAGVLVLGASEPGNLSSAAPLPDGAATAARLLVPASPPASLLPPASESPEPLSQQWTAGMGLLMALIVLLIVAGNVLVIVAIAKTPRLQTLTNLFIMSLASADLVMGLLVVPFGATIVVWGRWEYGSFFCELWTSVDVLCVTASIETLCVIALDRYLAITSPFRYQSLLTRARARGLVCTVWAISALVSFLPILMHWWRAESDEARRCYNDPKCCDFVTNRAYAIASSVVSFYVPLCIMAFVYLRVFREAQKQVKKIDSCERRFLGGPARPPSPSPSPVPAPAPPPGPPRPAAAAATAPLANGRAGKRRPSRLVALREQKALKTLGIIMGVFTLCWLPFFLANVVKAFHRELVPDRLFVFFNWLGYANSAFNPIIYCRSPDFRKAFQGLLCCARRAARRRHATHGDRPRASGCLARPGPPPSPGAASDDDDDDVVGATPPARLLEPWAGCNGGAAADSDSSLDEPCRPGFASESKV
Sequence of Beta-2 adrenergic receptor (Homo sapiens) (P07550 whole entry, looked up): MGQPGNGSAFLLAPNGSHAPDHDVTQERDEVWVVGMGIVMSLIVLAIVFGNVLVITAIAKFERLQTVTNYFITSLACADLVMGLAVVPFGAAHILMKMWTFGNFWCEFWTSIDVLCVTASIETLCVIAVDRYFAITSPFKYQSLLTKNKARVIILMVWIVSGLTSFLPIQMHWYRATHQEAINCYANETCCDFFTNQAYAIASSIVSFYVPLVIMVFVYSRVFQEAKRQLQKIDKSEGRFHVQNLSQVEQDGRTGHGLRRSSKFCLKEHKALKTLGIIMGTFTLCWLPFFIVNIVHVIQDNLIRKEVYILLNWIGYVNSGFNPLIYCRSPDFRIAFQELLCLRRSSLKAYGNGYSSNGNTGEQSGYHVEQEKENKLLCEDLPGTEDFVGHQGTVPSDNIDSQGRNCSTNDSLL
Sequence of Muscarinic acetylcholine receptor M3 (Homo sapiens) (P20309 whole entry, looked up): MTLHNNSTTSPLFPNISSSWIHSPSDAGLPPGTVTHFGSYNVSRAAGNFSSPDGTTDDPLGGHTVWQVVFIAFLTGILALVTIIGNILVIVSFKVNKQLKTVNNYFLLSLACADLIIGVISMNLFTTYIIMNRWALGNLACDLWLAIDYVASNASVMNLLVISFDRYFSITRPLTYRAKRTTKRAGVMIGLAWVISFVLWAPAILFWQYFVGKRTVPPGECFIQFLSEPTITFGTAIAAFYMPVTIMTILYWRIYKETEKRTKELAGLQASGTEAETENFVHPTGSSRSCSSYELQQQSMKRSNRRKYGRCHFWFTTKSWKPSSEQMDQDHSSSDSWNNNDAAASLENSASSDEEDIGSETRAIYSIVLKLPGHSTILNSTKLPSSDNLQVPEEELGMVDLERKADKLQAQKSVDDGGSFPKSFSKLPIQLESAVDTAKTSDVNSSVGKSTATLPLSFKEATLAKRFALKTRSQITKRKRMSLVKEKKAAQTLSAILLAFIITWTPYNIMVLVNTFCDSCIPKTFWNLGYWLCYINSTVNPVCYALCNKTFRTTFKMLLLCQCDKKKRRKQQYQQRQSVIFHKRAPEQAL
Sequence of Neuropeptide Y receptor type 2 (Homo sapiens) (P49146 whole entry): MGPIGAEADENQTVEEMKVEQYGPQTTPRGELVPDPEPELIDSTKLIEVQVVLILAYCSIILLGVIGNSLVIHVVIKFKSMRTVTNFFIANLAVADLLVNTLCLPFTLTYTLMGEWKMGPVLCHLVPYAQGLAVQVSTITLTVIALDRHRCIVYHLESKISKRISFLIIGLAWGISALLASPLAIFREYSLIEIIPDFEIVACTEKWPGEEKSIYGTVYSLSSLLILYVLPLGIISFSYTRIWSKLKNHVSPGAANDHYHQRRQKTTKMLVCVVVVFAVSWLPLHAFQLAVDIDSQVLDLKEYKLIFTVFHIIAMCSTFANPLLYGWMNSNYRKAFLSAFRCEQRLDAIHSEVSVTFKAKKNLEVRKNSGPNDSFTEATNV

`COc1cc(C(=O)O)ncc1C#Cc1ccccc1NS(=O)(=O)c1cccc2c(N(C)C)ccnc12` [MSC-0516]: the inhibition (commonly the drop in the measured response relative to a control, in per cent) in data set [1] was 20.6%; in data set [3] it was 12.2%. Besides, the pKi (commonly the negative decadic logarithm of the Ki, by convention in mol/L) in [2] (read-out: Ki) is 6.22. The Ki in [2] (read-out: pKi (converted)) is 589 nM. Moreover, the IC50 (in general, the concentration that gives 50% inhibition) in [4] was above 4000 nM.

Take `CCOc1ccc(S(=O)(=O)Nc2ccc(Cl)cc2C#Cc2cnc(C(=O)O)cc2OC)c2ncccc12` [MSC-4381]: the % Inhibition of Control Agonist Response (Mean n=2) in data set [5] was 34.9%. The % of Control Agonist Response (Mean n=2) in data set [5] was -3.1%. For the same molecule, the % Inhibition of Control Specific Binding (Mean n=2) in [6] was 8%; in [7], -7.6%; in data set [8], 11.1%; in data set [9], 2.4%; in [10], -12.1%; in data set [11] it was 7.8%. Moreover, the % Inhibition of Control Specific Binding (Mean n=2) is 15.3% in data set [12]; 17.4% in [13]; 4.6% in data set [14]; -5.9% in the data set listed under Rattus norvegicus [15]; -1.1% in data set [16]; -4.3% in [17]. Moreover, the % Inhibition of Control Specific Binding (Mean n=2) was 1.2% in [18]; -8.9% in [19]; -3.7% in [20]; 6.6% in data set [21]; -0.2% in data set [22]; 8% in data set [23]. The % Inhibition of Control Specific Binding (Mean n=2) is -3.3% in data set [24]; -8.2% in data set [25]; -47.1% in data set [26]; -6.7% in the data set listed under Rattus norvegicus [27]; 56.2% in [29]. Besides, the inhibition in data set [28] is 47.7%. For the same molecule, the inhibition at 60 min, 10 µM on Na+ channel (site 2) is -4.9%.
